Results as given in BindingDB's records for doi:10.1021/jm990229t (Ariad Pharmaceuticals, 1999).

Experiments:
[1] = target: T1, Tyrosine-protein kinase ZAP-70 (Homo sapiens, UniProt P43403); test: Competitive Binding Assay; conditions: pH 7.4; 22 °C
T1 sequence (P43403 whole entry): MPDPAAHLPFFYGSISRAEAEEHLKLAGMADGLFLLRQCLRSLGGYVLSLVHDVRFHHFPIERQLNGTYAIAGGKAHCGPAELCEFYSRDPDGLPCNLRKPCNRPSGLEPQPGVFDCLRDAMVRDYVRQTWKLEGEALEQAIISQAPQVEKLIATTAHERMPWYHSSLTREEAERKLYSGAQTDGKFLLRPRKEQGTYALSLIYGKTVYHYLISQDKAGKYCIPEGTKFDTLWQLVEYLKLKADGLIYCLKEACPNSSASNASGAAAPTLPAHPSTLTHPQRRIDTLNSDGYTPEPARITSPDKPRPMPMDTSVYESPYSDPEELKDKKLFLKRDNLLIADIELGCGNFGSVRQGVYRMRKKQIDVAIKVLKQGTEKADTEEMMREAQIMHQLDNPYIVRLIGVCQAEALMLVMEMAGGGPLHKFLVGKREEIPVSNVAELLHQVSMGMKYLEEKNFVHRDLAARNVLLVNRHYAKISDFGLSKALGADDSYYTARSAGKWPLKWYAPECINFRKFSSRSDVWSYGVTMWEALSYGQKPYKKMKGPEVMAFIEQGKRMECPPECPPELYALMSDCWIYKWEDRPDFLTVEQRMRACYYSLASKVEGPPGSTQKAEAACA
Procedure: (§1) Fluorescence polarization competitive binding assays were used to measure the IC50s of compounds binding to the different SH2 domains. The difference in polarization values of fluorescein-conjugated peptide reflects the bound and unbound state of the probe. IC50s were calculated based on the binding of the fluorescein-conjugated peptide to the protein with compound addition relative to vehicle-alone control samples.

[2] = target: Proto-oncogene tyrosine-protein kinase Src (Homo sapiens, UniProt P12931); test: Competitive Binding Assay; conditions: pH 7.4; 22 °C
Chain of Proto-oncogene tyrosine-protein kinase Src (P12931 2-536 limits assumed): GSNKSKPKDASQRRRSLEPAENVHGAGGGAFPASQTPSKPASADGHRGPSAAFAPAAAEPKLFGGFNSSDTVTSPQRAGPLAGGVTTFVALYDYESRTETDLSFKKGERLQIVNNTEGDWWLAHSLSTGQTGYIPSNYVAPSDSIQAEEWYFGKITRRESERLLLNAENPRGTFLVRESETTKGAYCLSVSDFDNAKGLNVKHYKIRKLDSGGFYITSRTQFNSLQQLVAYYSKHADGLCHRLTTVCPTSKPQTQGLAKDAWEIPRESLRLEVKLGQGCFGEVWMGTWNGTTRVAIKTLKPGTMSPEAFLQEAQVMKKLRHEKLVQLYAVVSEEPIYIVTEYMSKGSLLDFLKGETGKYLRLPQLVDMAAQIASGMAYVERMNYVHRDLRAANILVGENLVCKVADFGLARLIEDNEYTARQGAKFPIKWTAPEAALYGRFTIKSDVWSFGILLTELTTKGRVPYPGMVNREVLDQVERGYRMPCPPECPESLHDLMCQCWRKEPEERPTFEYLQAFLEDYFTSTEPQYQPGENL
Procedure: as §1

IC50 [1]: > 500 µM
IC50 [2]: 312 µM
SMILES: CC(=O)N[C@@H](Cc1ccc(OP(=O)(O)O)cc1)C(=O)N[C@@H](CCC(N)=O)c1nc(Cc2c(C)cc(C)cc2C)no1 [4-[(2S)-2-{[(1S)-3-carbamoyl-1-{3-[(2,4,6-trimethylphenyl)methyl]-1,2,4-oxadiazol-5-yl}propyl]carbamoyl}-2-acetamidoethyl]phenoxyphosphonic acid]
